What follows are compounds tested against H1047R PIK3CA enzyme (Homo sapiens, UniProt P42336, H1047R) (assay: ADP-Glo Biochemical PIK3CA Kinase Assay).
Sequence of H1047R PIK3CA enzyme (P42336 whole entry H1047R): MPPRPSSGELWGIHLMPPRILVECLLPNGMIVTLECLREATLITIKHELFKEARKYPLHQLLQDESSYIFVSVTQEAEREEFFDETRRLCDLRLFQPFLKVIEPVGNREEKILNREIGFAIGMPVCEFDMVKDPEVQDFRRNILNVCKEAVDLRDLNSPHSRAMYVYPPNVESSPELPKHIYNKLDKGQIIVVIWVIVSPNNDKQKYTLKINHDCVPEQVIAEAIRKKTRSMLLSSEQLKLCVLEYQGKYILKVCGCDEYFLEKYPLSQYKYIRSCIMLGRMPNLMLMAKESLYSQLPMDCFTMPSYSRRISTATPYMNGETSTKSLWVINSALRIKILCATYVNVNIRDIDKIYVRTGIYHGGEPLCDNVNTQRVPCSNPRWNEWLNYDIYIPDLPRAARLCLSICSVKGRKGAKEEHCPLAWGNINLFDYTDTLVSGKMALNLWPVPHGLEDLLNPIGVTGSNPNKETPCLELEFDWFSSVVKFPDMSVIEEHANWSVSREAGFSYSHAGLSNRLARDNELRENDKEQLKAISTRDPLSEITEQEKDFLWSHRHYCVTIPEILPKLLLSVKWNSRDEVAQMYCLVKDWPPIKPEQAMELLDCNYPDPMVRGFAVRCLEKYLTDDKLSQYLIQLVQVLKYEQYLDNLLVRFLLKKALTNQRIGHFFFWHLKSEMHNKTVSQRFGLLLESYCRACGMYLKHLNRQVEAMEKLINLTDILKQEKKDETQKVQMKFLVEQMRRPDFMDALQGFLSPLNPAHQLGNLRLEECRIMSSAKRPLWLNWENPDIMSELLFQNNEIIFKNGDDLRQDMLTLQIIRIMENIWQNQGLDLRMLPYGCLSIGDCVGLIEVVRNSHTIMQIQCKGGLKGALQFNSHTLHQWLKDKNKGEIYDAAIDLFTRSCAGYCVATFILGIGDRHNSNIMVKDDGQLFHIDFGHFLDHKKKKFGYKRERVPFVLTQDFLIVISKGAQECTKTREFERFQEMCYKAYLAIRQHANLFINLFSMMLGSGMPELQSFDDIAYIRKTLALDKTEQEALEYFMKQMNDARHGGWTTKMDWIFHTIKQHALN
Sequence of H1047R PIK3CA enzyme (P27986 whole entry partner): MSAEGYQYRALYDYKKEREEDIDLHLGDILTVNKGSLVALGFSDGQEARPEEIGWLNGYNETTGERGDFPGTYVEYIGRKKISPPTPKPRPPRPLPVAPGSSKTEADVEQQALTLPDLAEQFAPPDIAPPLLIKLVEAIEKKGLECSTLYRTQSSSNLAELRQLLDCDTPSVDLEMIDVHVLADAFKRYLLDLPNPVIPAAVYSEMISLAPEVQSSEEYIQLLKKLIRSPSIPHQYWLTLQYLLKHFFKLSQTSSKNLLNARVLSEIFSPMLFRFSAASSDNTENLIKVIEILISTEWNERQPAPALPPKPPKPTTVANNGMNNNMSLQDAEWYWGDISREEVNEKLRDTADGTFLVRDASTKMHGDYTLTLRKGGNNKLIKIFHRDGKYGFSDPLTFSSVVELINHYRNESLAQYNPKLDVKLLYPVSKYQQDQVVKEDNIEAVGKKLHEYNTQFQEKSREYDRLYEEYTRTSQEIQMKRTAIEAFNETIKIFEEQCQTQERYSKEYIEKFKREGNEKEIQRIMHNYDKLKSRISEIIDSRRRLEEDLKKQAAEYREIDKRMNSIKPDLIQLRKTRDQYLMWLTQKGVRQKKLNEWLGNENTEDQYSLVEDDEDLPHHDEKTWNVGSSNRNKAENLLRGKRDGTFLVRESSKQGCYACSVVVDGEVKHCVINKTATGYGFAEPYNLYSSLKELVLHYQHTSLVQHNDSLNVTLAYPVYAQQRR

IC50 [nM]	Compound
100 to 500	CC(O)(CO)c1cc(NC(=O)c2cc(F)cc(C(F)(F)F)c2)c2c(c1)C(=O)NC2c1cc(F)ccc1Cl (stereo not drawn) [Compound I-382]
≤ 100	N#Cc1cnc2cc(F)c(-c3cc(NC(=O)c4cc(F)cc(C(F)(F)F)c4)c4c(c3)C(=O)NC4c3cc(F)ccc3Cl)cn12 (stereo not drawn) [Compound I-1838]
1000 to 10000	O=C(Nc1cc(-c2ccc(=O)n(C3CC3)c2)nc2c1[C@@H](c1cc(F)ccc1Cl)NC2=O)c1cc(F)cc(C(F)(F)F)c1 [Compound I-746]
1000 to 10000	O=C(Nc1cc(-c2ccc3ncnn3c2)cc2c1[C@@H](c1cc(F)ccc1Cl)NC2=O)c1cc(F)c(F)c(Cl)c1 (stereo in doubt) [Compound I-1174]
≤ 100	Cn1ncc(-c2cc(NC(=O)c3cc(F)cc(C(F)(F)F)c3)c3c(c2)C(=O)NC3c2cc(F)ccc2Cl)c1C#N (stereo not drawn) [Compound I-1699]
≤ 100	O=C(Nc1cc(-c2cnc(C(F)(F)F)s2)nc2c1C(c1cc(F)ccc1Cl)NC2=O)c1cc(F)cc(Cl)c1 (stereo not drawn) [Compound I-496]
10000 to 100000	Cn1c(Cl)cc(C(=O)Nc2cc(Br)cc3c2[C@@H](c2cc(F)ccc2Cl)NC3=O)cc1=O [Compound I-2096]
≤ 100	O=C(Nc1cc(-c2ccc3ncnn3n2)cc2c1[C@H](c1cc(F)ccc1Cl)NC2=O)c1cc(F)cc(C(F)(F)F)c1 [Compound I-1650]
1000 to 10000	O=C(Nc1cc(-c2ccc3ncnn3c2)cc2c1[C@@H](c1cc(F)ccc1Cl)NC2=O)c1cc(F)cc(Cl)c1 (stereo in doubt) [Compound I-1166]
≤ 100	N#CC[C@H](O)c1cc(NC(=O)c2cc(F)cc(C(F)(F)F)c2)c2c(c1)C(=O)N[C@H]2c1cc(F)ccc1Cl (single isomer, unassigned) [Compound I-1394]
1000 to 10000	O=C1N[C@@H](c2cc(F)ccc2Cl)c2c(NC(=O)N3C[C@@H](CO)[C@H](C(F)(F)F)C3)cccc21 (single isomer, unassigned) [Compound I-2277]
10000 to 100000	O=C(Nc1cc(Br)cc2c1[C@@H](c1cc(F)ccc1Cl)NC2=O)N[C@]1(CC(F)(F)F)CCCOC1 (racemic) [Compound I-1961]
≤ 100	O=C(Nc1cc(NC2CCC2(F)F)cc2c1C(c1cc(F)ccc1Cl)NC2=O)c1cc(F)cc(C(F)(F)F)c1 (stereo not drawn) [Compound I-530]
10000 to 100000	O=C(O)c1cc(-c2ccc3ncnn3c2)cc2c1C(c1cc(F)ccc1Cl)NC2=O (stereo not drawn) [Compound I-1784]
10000 to 100000	O=C1NC(c2cc(F)ccc2Cl)c2c(Cn3ccccc3=O)cc(-c3ccc4ncnn4c3)cc21 (stereo not drawn) [Compound I-1980]
≤ 100	O=C(Nc1cc(-c2ccn3nc(Cl)nc3c2)cc2c1[C@H](c1cc(F)ccc1Cl)NC2=O)c1cc(F)cc(C(F)(F)F)c1 [Compound I-1697]
10000 to 100000	CC(C)(O)Cn1cc(-c2cc(NC(=O)c3cc(F)cc(C(F)(F)F)c3)c3c(c2)C(=O)N[C@@H]3c2cc(F)ccc2Cl)cn1 [Compound I-1096]
500 to 1000	O=C(Nc1cc(-c2cnc3ncnn3c2)cc2c1[C@@H](c1cc(F)ccc1Cl)NC2=O)c1cc(F)cc(C(F)(F)F)c1 [Compound I-1023]
10000 to 100000	CC(C)c1cc(N)n(C(=O)Nc2cccc3c2C(c2cc(F)ccc2Cl)NC3=O)n1 (stereo not drawn) [Compound I-2465]
1000 to 10000	Cn1cc(Oc2cc(NC(=O)c3cc(F)cc(C(F)(F)F)c3)c3c(c2)C(=O)NC3c2cc(F)ccc2Cl)cn1 (stereo not drawn) [Compound I-1120]
1000 to 10000	O=C1N[C@@H](c2cc(F)ccc2Cl)c2c(NC(=O)N3C[C@H](O)c4cc(F)ccc43)cc(-n3ccnn3)cc21 (single isomer, unassigned) [Compound I-2368]
≤ 100	CS(=O)(=O)Oc1cc(NC(=O)c2cc(F)cc(C(F)(F)F)c2)c2c(c1)C(=O)NC2c1cc(F)ccc1Cl (stereo not drawn) [Compound I-1543]
1000 to 10000	CS(=O)(=O)c1cc(NC(=O)c2cc(F)cc(C(F)(F)F)c2)c2c(c1)C(=O)NC2(c1cc(F)ccc1Cl)S(=O)(=O)O (stereo not drawn) [Compound I-1296]
≤ 100	O=C1N[C@@H](c2cc(F)ccc2Cl)c2c(NC(=O)N3C[C@@H](O)c4ccccc43)cc(-c3ccc4ncnn4c3)cc21 (single isomer, unassigned) [Compound I-1577]

— patent US12581252B2, “Substituted pyrrolo[3,4-b]pyridines as PI3K-α inhibitors” (Relay Therapeutics, Inc., priority 2020, dated 2026)
